Test results reported in publication PMC6271395, “Synthesis and Biological Activities of Some New (N^α-Dinicotinoyl)-bis-L-Leucyl Linear and Macrocyclic Peptides” (Molecules, 2014).

How the values were obtained:
Bacillus subtilis = assay: Agar diffusion antimicrobial test, Bacillus subtilis; type: cell-based; settings: Gram+ve, modified Kirby–Bauer disk diffusion, 10 µg/mL
Method: (§1) The newly synthesized compounds 3–12 were tested for their preliminary antimicrobial activity against different microorganisms representing Gram-positive (Bacillus subtilis, Bacillus aureus and Staphylococcus aureus), Gram-negative bacteria (Escherichia coli), yeast (Candida albican) and fungi (Aspergillus niger).
(§2) The antimicrobial activities of the synthesized compounds were determined by the agar diffusion method as recommended by the national committee for clinical laboratory standards (NCCLS). The concentrations of the tested compounds (10 µg/mL) were used according to modified Kirby–Bauer’s disk diffusion method. The degree of inhibition is measured in comparison with that of chloramphinicol and fusidic acid taken as standards.

Bacillus aureus = assay: Agar diffusion antimicrobial test, Bacillus aureus; type: cell-based; settings: Gram+ve, modified Kirby–Bauer disk diffusion, 10 µg/mL
Method: as §1, §2

Staphylococcus aureus = assay: Agar diffusion antimicrobial test, Staphylococcus aureus; type: cell-based; settings: Gram+ve, modified Kirby–Bauer disk diffusion, 10 µg/mL
Method: as §1, §2

Escherichia coli = assay: Agar diffusion antimicrobial test, Escherichia coli; type: cell-based; settings: Gram−ve, modified Kirby–Bauer disk diffusion, 10 µg/mL
Method: as §1, §2

Aspergillus niger = assay: Agar diffusion antimicrobial test, Aspergillus niger; type: cell-based; settings: Fungi, modified Kirby–Bauer disk diffusion, 10 µg/mL
Method: as §1, §2

Candida albicans = assay: Agar diffusion antimicrobial test, Candida albicans; type: cell-based; settings: Yeast, modified Kirby–Bauer disk diffusion, 10 µg/mL
Method: as §1, §2

[1] = tested on: carrageenan-induced edema; assay: Carrageenan-induced edema (rat paw test); type: in vivo; settings: one hour before carrageenan, male albino rats, eight animals per group, paws excised four hours after drug administration
Method: (§3) For the determination of the antiphlogistic potency of the synthesized compounds, two standard tests were realized at a dose level 2.5 and 5 mg/kg body weight of the rats, namely the protection against carrageenan-induced edema according to Winter et al. and the inhibition of plasma PGE2. The latter is known as a good confirming indicator for carrageenan-induced rat paw edema. […] For these compounds, a similar activity profile was realized for the inhibition of plasma PGE2.
(§4) Groups of adult male albino rats (150–180 g), each of eight animals were orally dosed with tested compounds at a dose level of 2.5–5 mg/kg one hour before carrageenan challenge. Foot paw edema was induced by subplantar injection of 0.05 cm^3 of a 1% suspension of carrageenan in saline into the plantar tissue of one hind paw. An equal volume of saline was injected to the other hand paw and served as control. Four hours after drug administration the animals were decapitated, blood was collected, and the paws were rapidly excised. The average weight of edema was examined for the treated as well as the control group and the percentage inhibition of weight of edema was also evaluated. Diclofenac potassium (5 mg/kg) was employed as standard reference against which the tested compounds were compared (Table 2).

plasma PGE2 = assay: Inhibition of plasma PGE2 (EIA) in carrageenan-challenged rats; type: in vivo, rat; settings: rats n = 8, blood four hours after drug administration, PGE2 EIA kit
Method: as §3, §4
Heparinized blood samples were collected from rats (n = 8), plasma was separated by centrifugation at 12,000 g for 2 min at […], immediately frozen, and stored at […] until use. The design correlate EIA prostaglandin E2 (PGE2) kit (Aldrich, Steinheim, Germany) is a competitive immuno assay for the quantitative determination of PGE2 in biological fluids. The kit uses a monoclonal antibody to PGE2 to bind, in a competitive manner, the PGE2 in the sample after a simultaneous incubation at room temperature. The excess reagents were washed away and the substrate was added, after a short incubation time the enzyme reaction was stopped, and the yellow color generated was read on a microplate reader DYNATech, MR 5000 at 405 nm (Dynatech Industries Inc., McLean, VA, USA). The intensity of the bound yellow color is inversely proportional to the concentration of PGE2 in either standard or samples.

Row | Compound | Inhibition Zome, Bacillus subtilis (Bacillus subtilis) | Inhibition Zome, Bacillus aureus (Bacillus aureus) | Inhibition Zome, Staphylococcus aureus (Staphylococcus aureus) | Inhibition Zome, Escherichia coli (Escherichia coli) | Inhibition Zome, Aspergillus niger (Aspergillus niger) | Inhibition Zome, Candida albicans (Candida albicans) | % Protection against Edema ([1]; dose 2.5 mg/kg oral) | % Protection against Edema ([1]; dose 5.0 mg/kg oral) | % Inhibition of Plasma PGE2 (plasma PGE2; dose 2.5 mg/kg oral) | % Inhibition of Plasma PGE2 (plasma PGE2; dose 5.0 mg/kg oral)
1 | 2,6-Bis {N-[1-{(2E)-2-[1-(4-nitrophenyl)ethylidene]hydrazinyl}-4-methyl-1-oxopentan]-3-carboxamido}pyridine [Compound 9c] | 1.72 cm | 1.22 cm | 1.66 cm | 0.60 cm | 1.76 cm | – | – | – | – | –
2 | 2,6-Bis {N-{(2R)-1-[2-(4-chlorobenzylidene)hydrazinyl]-4-methyl-1-oxopentan]-3-carboxamido}-pyridine [Compound 10e] | 1.65 cm | 1.96 cm | 1.80 cm | 0.78 cm | 1.48 cm | 0.94 cm | – | – | – | –
3 | 2,6-Bis {N-{(2R)-1-[2-(4-methoxybenzylidene)hydrazinyl]-4-methyl-1-oxopentan]-3-carboxamido}-pyridine [Compound 10c] | 1.76 cm | 1.56 cm | 1.64 cm | 0.80 cm | 1.95 cm | 1.00 cm | – | – | – | –
4 | 2,6-Bis {N-{(2R)-1-[2-(4-methylbenzylidene)hydrazinyl]-4-methyl-1-oxopentan]-3-carboxamido}-pyridine [Compound 10b] | 1.80 cm | 1.95 cm | 1.85 cm | 0.78 cm | 1.56 cm | 0.95 cm | – | – | – | –
5 | 2,6-Bis[(N-[4-methyl-1-(1H-benzo[de]isoquinoline-1,3(2H)-dion)-pentan]-3-carboxamido]pyridine [Compound 8] | 1.90 cm | 1.94 cm | 1.95 cm | 0.90 cm | 2.00 cm | 0.98 cm | 78.88 ± 0.090% | 92.00 ± 0.060% | 57.57 ± 0.045% | 76.00 ± 0.035%
6 | 2,6-Bis[(N-[4-methyl-1-(4,5,6,7-tetrachloro-1H-isoindole-1,3(2H)-dion)-pentan]-3-carboxamido]-pyridine [Compound 7b] | 1.46 cm | 1.80 cm | 1.45 cm | 0.66 cm | 1.95 cm | – | – | – | – | –
7 | O=C(N[C@H](CO)[C@H](O)c1ccc([N+](=O)[O-])cc1)C(Cl)Cl [Chloramphenicol, reference compound] | 2.00 cm | 2.10 cm | 2.00 cm | 0.95 cm | – | – | – | – | – | –
8 | COC(=O)[C@H](CC(C)C)NC(=O)c1cncc(C(=O)N[C@@H](CC(C)C)C(=O)OC)c1 [Compound 3, 3,5-Bis-(Methyl L-Leucenylcarbonyl)pyridine carboxylate] | 1.46 cm | 1.65 cm | 1.76 cm | 0.62 cm | 1.78 cm | – | 86.16 ± 0.052% | 98.18 ± 0.053% | 59.45 ± 0.050% | 81.10 ± 0.056%
9 | CC(C)C[C@H](NC(=O)c1cncc(C(=O)N[C@@H](CC(C)C)C(=O)NN)c1)C(=O)NN [Compound 4, N^2,N^2′-(Pyridine-3,5-dicarbonyl)-di-L-leucyl hydrazide] | 1.85 cm | 1.92 cm | 1.80 cm | 0.80 cm | 1.56 cm | 0.92 cm | 93.45 ± 0.074% | 98.56 ± 0.060% | 75.66 ± 0.040% | 80.01 ± 0.058%
10 | CC(C)C[C@H](NC(=O)c1cncc(C(=O)N[C@@H](CC(C)C)C(=O)O)c1)C(=O)O [Compound 5, N,N′-Bis(1-Carboxy-2-L-leucyl)-3,5-(diaminocarbonyl)pyridine] | 1.68 cm | 1.14 cm | 1.76 cm | 0.64 cm | 1.72 cm | – | 85.14 ± 0.056% | 96.18 ± 0.067% | 61.16 ± 0.041% | 77.14 ± 0.036%
11 | COC(=O)[C@@H]1CCCCNC(=O)[C@H](CC(C)C)NC(=O)c2cncc(c2)C(=O)N[C@@H](CC(C)C)C(=O)N1 [Compound 6, Cyclo-(Na-dinicotinoyl)-bis-(L-leucyl)-L-lysine methyl ester] | 1.82 cm | 1.50 cm | 1.54 cm | 0.65 cm | 1.75 cm | – | 92.14 ± 0.076% | 99.08 ± 0.062% | 84.18 ± 0.052% | 86.01 ± 0.030%
12 | CC(C)C[C@H](NC(=O)c1cncc(C(=O)N[C@@H](CC(C)C)C(=O)N/N=C/c2ccccc2)c1)C(=O)N/N=C/c1ccccc1 [Compound 10a] | 1.56 cm | 1.45 cm | 1.56 cm | 0.66 cm | 1.68 cm | – | 90.32 ± 0.035% | 99.10 ± 0.036% | 62.12 ± 0.051% | 83.01 ± 0.049%
13 | CC(C)C[C@@H]1NC(=O)c2cncc(c2)C(=O)N[C@@H](CC(C)C)C(=O)NN2C(=O)c3ccc4c5c(ccc(c35)C2=O)C(=O)N(NC(=O)[C@H](CC(C)C)NC(=O)c2cncc(c2)C(=O)N[C@@H](CC(C)C)C(=O)NN2C(=O)c3ccc5c6c(ccc(c36)C2=O)C(=O)N(NC1=O)C5=O)C4=O [Compound 12] | 1.65 cm | 1.83 cm | 1.65 cm | 0.64 cm | 1.58 cm | – | 90.48 ± 0.090% | 99.36 ± 0.080% | 63.16 ± 0.036% | 86.18 ± 0.071%
14 | O=C([O-])Cc1ccccc1Nc1c(Cl)cccc1Cl.[K+] [Diclofenac Potassium, reference compound] | – | – | – | – | – | – | 70.14 ± 0.064% | 75.23 ± 0.083% | 54.00 ± 0.041% | 70.00 ± 0.051%
15 | CC(=O)O[C@H]1C[C@@]2(C)[C@@H](C[C@@H](O)[C@H]3[C@@]4(C)CC[C@@H](O)[C@@H](C)[C@@H]4CC[C@@]32C)/C1=C(\CCC=C(C)C)C(=O)O [Fusidic Acid, reference compound] | – | – | – | – | 1.9 cm | 1.9 cm | – | – | – | –
